Experiments:
Conditions in all cases: 48 h
NOMO1 [1] = experiment: cell viability relative to DMSO control; higher = less cytotoxic
Procedure, shortened: (§1)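 NOMO1, SEM and P12-Ichikawa leukemia cells spent at least four passages adapting to each medium before use. They were seeded at 500 cells/well (NOMO1, SEM) or 1000 cells/well (P12-Ichikawa) in 5 μl in 1536-well plates and pin-dosed with library compounds in DMSO at 11 threefold steps from 47 μM down to 0.79 nM. After 48 h at 37°C, CellTiter-Glo One luminescence was read. Viability is reported as a percentage of the DMSO wells on each plate, with cell-free wells as background.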

P12-Ichikawa [2] = experiment: as above
Procedure, shortened: as §1

SEM cells [3] = experiment: as above
Procedure, shortened: as §1

NOMO1 [4] = experiment: AUC of viability dose-response curve (% viability x log10 dose units); higher = less sensitive
Procedure, shortened: (§2)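 Over 48 h at 37°C, leukemia cells in 1536-well plates (500 or 1000 cells/well), adapted to each medium, received library compounds in DMSO at 11 threefold doses from 47 μM to 0.79 nM. CellTiter-Glo One luminescence, normalised per plate to DMSO and cell-free wells, was fitted by a four-parameter log-logistic function of log10 dose. The area under the curve was then integrated by trapezoidal rule, after scaling curves above full viability and removing those that failed quality control.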

P12-Ichikawa [5] = experiment: as above
Procedure, shortened: as §2

SEM cells [6] = experiment: as above
Procedure, shortened: as §2

CCCC1OC2C[C@H]3[C@@H]4CCC5=CC(=O)C=C[C@]5(C)[C@H]4C(O)C[C@]3(C)[C@]2(C(=O)CO)O1 (stereo not given in full)
cell viability [%]
Conditions	NOMO1 [1]	P12-Ichikawa [2]	SEM cells [3]
HPLM + 10% dialyzed FBS, 0.000781 µM	–	114	88.6
HPLM + 10% dialyzed FBS, 0.00234 µM	–	120	84.3
HPLM + 10% dialyzed FBS, 0.00702 µM	–	109	97.1
HPLM + 10% dialyzed FBS, 0.0211 µM	–	95.8	85.3
HPLM + 10% dialyzed FBS, 0.0632 µM	–	79	69
HPLM + 10% dialyzed FBS, 0.19 µM	–	68.7	67
HPLM + 10% dialyzed FBS, 0.569 µM	–	67.3	62.2
HPLM + 10% dialyzed FBS, 1.71 µM	–	64	51
HPLM + 10% dialyzed FBS, 5.12 µM	–	64.9	48
HPLM + 10% dialyzed FBS, 15.4 µM	–	60	46.2
HPLM + 10% dialyzed FBS, 46.1 µM	–	49	27.4
RPMI 5 mM glucose + 10% FBS, 0.000781 µM	106	116	95.2
RPMI 5 mM glucose + 10% FBS, 0.00234 µM	105	114	125
RPMI 5 mM glucose + 10% FBS, 0.00702 µM	107	99.1	95.7
RPMI 5 mM glucose + 10% FBS, 0.0211 µM	111	90	86.7
RPMI 5 mM glucose + 10% FBS, 0.0632 µM	107	70.6	81.4
RPMI 5 mM glucose + 10% FBS, 0.19 µM	104	57.8	66
RPMI 5 mM glucose + 10% FBS, 0.569 µM	106	57.6	46.3
RPMI 5 mM glucose + 10% FBS, 1.71 µM	103	50.1	59.9
RPMI 5 mM glucose + 10% FBS, 5.12 µM	100	51.2	48.6
RPMI 5 mM glucose + 10% FBS, 15.4 µM	97.5	51.3	46.2
RPMI 5 mM glucose + 10% FBS, 46.1 µM	46.7	39.7	18.2
RPMI 5 mM glucose + 10% dialyzed FBS, 0.000781 µM	99.5	116	87.4
RPMI 5 mM glucose + 10% dialyzed FBS, 0.00234 µM	119	108	105
RPMI 5 mM glucose + 10% dialyzed FBS, 0.00702 µM	106	90.4	100
RPMI 5 mM glucose + 10% dialyzed FBS, 0.0211 µM	114	76.7	77.9
RPMI 5 mM glucose + 10% dialyzed FBS, 0.0632 µM	110	60	68.8
RPMI 5 mM glucose + 10% dialyzed FBS, 0.19 µM	102	47.5	59.2
RPMI 5 mM glucose + 10% dialyzed FBS, 0.569 µM	105	44.1	53.4
RPMI 5 mM glucose + 10% dialyzed FBS, 1.71 µM	115	43	52.3
RPMI 5 mM glucose + 10% dialyzed FBS, 5.12 µM	97.1	42	50.5
RPMI 5 mM glucose + 10% dialyzed FBS, 15.4 µM	95.3	37.5	39.7
RPMI 5 mM glucose + 10% dialyzed FBS, 46.1 µM	63.7	28.4	19.3

AUC of viability dose-response curve
Conditions	NOMO1 [4]	P12-Ichikawa [5]	SEM cells [6]
HPLM + 10% dialyzed FBS	446	324	317
RPMI 5 mM glucose + 10% FBS	460	290	304
RPMI 5 mM glucose + 10% dialyzed FBS	458	252	311

C[S+](=O)([O-])c1ccc(Oc2cc(F)cc(C#N)c2)c2c1[C@H](O)C(F)(F)C2
cell viability [%]
Conditions	NOMO1 [1]	P12-Ichikawa [2]	SEM cells [3]
HPLM + 10% dialyzed FBS, 0.000781 µM	96.5	92.8	73.5
HPLM + 10% dialyzed FBS, 0.00234 µM	123	96.9	97.9
HPLM + 10% dialyzed FBS, 0.00702 µM	123	102	101
HPLM + 10% dialyzed FBS, 0.0211 µM	112	100	101
HPLM + 10% dialyzed FBS, 0.0632 µM	119	102	108
HPLM + 10% dialyzed FBS, 0.19 µM	119	107	105
HPLM + 10% dialyzed FBS, 0.569 µM	139	103	103
HPLM + 10% dialyzed FBS, 1.71 µM	126	104	106
HPLM + 10% dialyzed FBS, 5.12 µM	112	110	111
HPLM + 10% dialyzed FBS, 15.4 µM	120	109	106
HPLM + 10% dialyzed FBS, 46.1 µM	121	96.3	87.7
RPMI 5 mM glucose + 10% FBS, 0.000781 µM	92.7	91.5	93.8
RPMI 5 mM glucose + 10% FBS, 0.00234 µM	111	100	117
RPMI 5 mM glucose + 10% FBS, 0.00702 µM	101	103	152
RPMI 5 mM glucose + 10% FBS, 0.0211 µM	103	117	140
RPMI 5 mM glucose + 10% FBS, 0.0632 µM	119	108	138
RPMI 5 mM glucose + 10% FBS, 0.19 µM	117	107	155
RPMI 5 mM glucose + 10% FBS, 0.569 µM	101	112	144
RPMI 5 mM glucose + 10% FBS, 1.71 µM	112	105	156
RPMI 5 mM glucose + 10% FBS, 5.12 µM	124	105	141
RPMI 5 mM glucose + 10% FBS, 15.4 µM	108	106	158
RPMI 5 mM glucose + 10% FBS, 46.1 µM	114	97.8	124
RPMI 5 mM glucose + 10% dialyzed FBS, 0.000781 µM	97.4	92.6	76.9
RPMI 5 mM glucose + 10% dialyzed FBS, 0.00234 µM	102	105	112
RPMI 5 mM glucose + 10% dialyzed FBS, 0.00702 µM	103	108	121
RPMI 5 mM glucose + 10% dialyzed FBS, 0.0211 µM	109	110	105
RPMI 5 mM glucose + 10% dialyzed FBS, 0.0632 µM	111	115	124
RPMI 5 mM glucose + 10% dialyzed FBS, 0.19 µM	127	110	121
RPMI 5 mM glucose + 10% dialyzed FBS, 0.569 µM	123	104	106
RPMI 5 mM glucose + 10% dialyzed FBS, 1.71 µM	125	110	128
RPMI 5 mM glucose + 10% dialyzed FBS, 5.12 µM	117	110	106
RPMI 5 mM glucose + 10% dialyzed FBS, 15.4 µM	125	104	120
RPMI 5 mM glucose + 10% dialyzed FBS, 46.1 µM	114	106	84.9

AUC of viability dose-response curve
Conditions	NOMO1 [4]	P12-Ichikawa [5]	SEM cells [6]
HPLM + 10% dialyzed FBS	455	467	467
RPMI 5 mM glucose + 10% FBS	462	469	459
RPMI 5 mM glucose + 10% dialyzed FBS	448	472	467

From the supplement of paper PMC11451515
